Patent publication US20250230226A1, “PLXDC1/PLXDC2 ACTIVATORS AND THEIR USE IN THE TREATMENT OF BLOOD VESSEL DISORDERS” (THE REGENTS OF THE UNIVERSITY OF CALIFORNIA, priority 2019, published 2025)

Experiments:
[1] = system: LL/2 lung cancer tumor endothelial cells; experiment: Lung LL2 ex vivo model of tumor angiogenesis; type: cell-based, mouse; conditions: for Cell death: drug treatment for two days, ratio of red area to total endothelial cell area; for 48 hrs (morphology observations): LL/2 tumor endothelial cells; for cytotoxicity at 40 µM / cytotoxicity at 20 µM: Mus musculus, Endothelial cell, 48 h, read-out: Cell death
In short: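 LL2 mouse tumor fragments (~0.075 mm³) embedded in Matrigel and cultured in endothelial growth medium at 37 °C until endothelial outgrowth (~4 days) before treatment. Cell death assessed e.g. 48 h after drug by fluorescein diacetate (live)/propidium iodide (dead) staining and red/green fluorescence imaging.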

[2] = system: CT26.CL25 colon cancer tumor endothelial cells; experiment: Colon CT26 ex vivo model of tumor angiogenesis; type: cell-based, mouse; conditions: for cytotoxicity at 40 µM / cytotoxicity at 10 µM / cytotoxicity at 20 µM: Mus musculus, Endothelial cell, 48 h, read-out: Cell death
Method: An ex vivo tumor angiogenesis model was developed to test the efficacy of anti-cancer candidate agents. The following protocol describes the Ex Vivo Tumor Angiogenesis Model.
• 1. The day before the experiment, all necessary tools were sprayed with 70% ethanol and sterilized under UV light overnight, including blade, dissecting and micro-dissecting scissors and […]. 24-well dishes were placed at 4° C. to pre-chill plates and Matrigel was thawed, 24 hours before tumor dissection. • 2. 70% ethanol was sprayed on working bench. Two sterile petri dishes were prepared with 10 ml sterile PBS. The following steps 3 and 4 are necessary for mouse tumor models. For fresh human tumor, steps 3 and 4 are skipped. • 3. The tumor-bearing mice were euthanized. 70% ethanol was sprayed on the mouse and the tumor was removed using sterilized dissecting tools (avoid the fur). The tumor was rinsed in petri dish with sterile PBS to remove ethanol and fur. The tumor was transferred to a new petri dish with PBS for dissection. The dish is placed on ice. • 4. Pre-chilled sterile pipet tips were used to seed regular Matrigel in 24 well plates on ice. Matrigel (30 μl) was dropped in the middle of each well without touching the edge of the well (avoid introducing bubbles if possible). • 5. The tumor was cut in halves using the sterile blade. Healthy tumor tissue that is not necrotic and is within the tumor capsule was identified and isolated. The healthy tumor tissue was cut into small pieces. For instance, a suitable size for the tumor tissue is 0.5 mm (H)×0.5 mm (L)×0.3 mm (D) with a total volume of 0.075 mm^3. • 6. Each tumor piece was gently transferred and embedded in the Matrigel drop in the 24-well plate. The embedded piece was placed in the bottom and middle of each Matrigel drop. The plate was kept on ice all the time. • 7. After seeding the tumor pieces, plates were incubated in a 37° C. cell culture incubator without medium for 10 minutes in order for the Matrigel to solidify. • 8. Endothelial Growth Medium (0.5 ml) was added to each well and incubated at 37° C. with 5% CO2. Treatment was not added until the new endothelial cells was grown out of the tumor or were larger than 3 mm in diameter. This usually takes 4 days for the LL2 Lewis lung cancer model and 7 days for the CT26 colon cancer model. For human tumor models, the growth time is typically 2-3 weeks, depending on the tumor type. Media was changed every 4 days during prolonged culture. Typically, when the tumor tissue grows to 2 mm in diameter, it was good for drug testing. A size of about 3 mm in diameter can make visualization easier. • 9. When the assay was ready to be analyzed for cell death (e.g., 48 hours after drug addition), the dye mixture was prepared by mixing 6 μl of green dye to stain live cells (5 mg/ml Fluorescein diacetate or FDA in DMSO) with 30 μl of red dye (2.5 mg/ml Propidium iodide or PI in PBS) to stain dead cells in an Eppendorf tube. The FDA dye needs to be stored frozen in a −20° C. freezer because it has a labile ester bond. • 10. 1 μl of the dye mixture was added to each well of the 24-well dish. It is usually preferred to do one 24-well dish at a time given the amount of time needed to take pictures (the green dye is not as stable in the cells in the long term). • 11. The dish was gently rocked a few times to mix the dye with the media in the wells and incubate the dish at 37° C. for 10 min (too long incubation can make the green signal too intense). • 12. Each well was washed with 0.5 ml of sterile PBS and then 0.5 ml of phenol red free SFM was added to each well. Alternatively 0.5 ml of regular Endothelial Cell Growth Media can be added to each well if this well needs to be continuously maintained after the experiment. • 13. An inverted microscope using the 2× objective lens was used to observe morphological changes in the experimental wells. • 14. […]

| Structure (SMILES) | Cell death ([1]; 40 μm) [%] | 48 hrs (morphology observations after 48 hours) ([2]; Conc. 40 μm) | cytotoxicity at 40 µM [2] [%] | 48 hrs (morphology observations) ([1]; 20 μm) | further results |
| --- | --- | --- | --- | --- | --- |
| CCc1ccc(S(=O)(=O)c2cnc3ccc(OC(F)(F)F)cc3c2N2CCC3(CC2)OCCO3)cc1 [Compound 52] | 50 | 0 | 0 |  |  |
| O=[N+]([O-])c1ccc(S(=O)(=O)c2cnc3ccc(OC(F)(F)F)cc3c2N2CCC(N3CCCCC3)CC2)cc1 [Compound 59] | 40 | 0 | 50 |  |  |
| COc1ccc(S(=O)(=O)c2cnc3ccc(CC#N)cc3c2-n2cncn2)cc1 [Compound 98] |  |  |  |  | Cell death ([1]; 20 μm): 10%; 48 hrs (morphology observations after 48 hours) ([2]; Conc. 10 μm): *** (100% of endothelial cells vesicularize in cell shape); cytotoxicity at 10 µM [2]: 50% |
| COc1ccc(S(=O)(=O)c2cnc3ccc(OC(F)(F)F)cc3c2N2CCCN(C)CC2)cc1OC [Compound 57] | 40 | * (50% or less of cells vesicularize in cell shape) | 60 |  | 48 hrs (morphology observations) ([1]; 40 μm): 0 |
| CCCCOc1ccc(S(=O)(=O)c2cnc3ccc(OC(F)(F)F)cc3c2N2CCC(N3CCCCC3)CC2)cc1 [Compound 119] |  |  |  | *** (more than 50% but less than 100% of endothelial cells vesicularize in cell shape) | Cell death ([1]; 20 μm): 100%; 48 hrs (morphology observations after 48 hours) ([2]; Conc. 20 μm): 0; cytotoxicity at 20 µM [2]: 50% |
| CCCCN(CCCC)c1c(S(=O)(=O)c2ccc(OC)c(OC)c2)cnc2ccc(OC(F)(F)F)cc12 [Compound 74] | 60 | *** (100% of endothelial cells vesicularize in cell shape) | 100 |  | 48 hrs (morphology observations) ([1]; 40 μm): *** (more than 50% but less than 100% of endothelial cells vesicularize in cell shape) |
| CCCCCCCOc1ccc(S(=O)(=O)c2cnc3ccc([S+](C)[O-])cc3c2N2CCN(C)CC2)cc1 (stereo not shown) [Compound 259] |  |  |  | *** (more than 50% but less than 100% of endothelial cells vesicularize in cell shape) | Cell death ([1]; 20 μm): 95%; 48 hrs (morphology observations after 48 hours) ([2]; Conc. 20 μm): *** (100% of endothelial cells vesicularize in cell shape); cytotoxicity at 20 µM [2]: 100% |
| O=[N+]([O-])c1ccc(S(=O)(=O)c2cnc3ccc(OC(F)(F)F)cc3c2N2CCC(O)CC2)cc1 [Compound 61] | 50 | 0 | 20 |  |  |
| CCCCCCCOc1ccc(S(=O)(=O)c2cnc3ccc([S+](C)[O-])cc3c2N2CCCN(C)CC2)cc1 (stereo not shown) [Compound 220] |  | **** (100% of endothelial cells vesicularize in cell shape and look flattened in morphology (indicating disintegration of the cell body)) | 100 |  | 48 hrs (morphology observations) ([1]; 40 μm): **** (100% of endothelial cells vesicularize in cell shape and look flattened in morphology (indicating disintegration of the cell body)); cytotoxicity at 40 µM [1]: 100% |
| CCCCCCCOc1ccc(S(=O)(=O)c2cnc3ccc([S+](C)[O-])cc3c2N2CCC(N3CCN(C)CC3)CC2)cc1 (stereo not shown) [Compound 253] |  |  |  | **** (100% of endothelial cells vesicularize in cell shape and look flattened in morphology (indicating disintegration of the cell body)) | Cell death ([1]; 20 μm): 100%; 48 hrs (morphology observations after 48 hours) ([2]; Conc. 10 μm): *** (100% of endothelial cells vesicularize in cell shape); cytotoxicity at 10 µM [2]: 80% |
| CCc1ccc(S(=O)(=O)c2cnc3ccc(OC(F)(F)F)cc3c2-n2nnc3ccccc32)cc1 [Compound 112] |  | ** (more than 50% but less than 100% of endothelial cells vesicularize in cell shape) | 10 | *** (more than 50% but less than 100% of endothelial cells vesicularize in cell shape) | Cell death ([1]; 20 μm): 70% |
| CCCCOc1ccc(S(=O)(=O)c2cnc3ccc(C(=O)OCC)cc3c2N2CCC(N3CCOCC3)CC2)cc1 [Compound 212] | 50 | 0 | 10 |  |  |
| O=S(=O)(c1ccc(OC(F)(F)F)cc1)c1cnc2ccc(OC(F)(F)F)cc2c1-n1cncn1 [Compound 91] |  |  |  | *** (more than 50% but less than 100% of endothelial cells vesicularize in cell shape) | cytotoxicity at 20 µM [1]: 80%; 48 hrs (morphology observations after 48 hours) ([2]; Conc. 10 μm): *** (100% of endothelial cells vesicularize in cell shape); cytotoxicity at 10 µM [2]: 100% |
| CCc1ccc(S(=O)(=O)c2cnc3ccc(OC(F)(F)F)cc3c2N2CCC(OCCN(CC)CC)CC2)cc1 [Compound 101] |  |  |  | *** (more than 50% but less than 100% of endothelial cells vesicularize in cell shape) | cytotoxicity at 20 µM [1]: 100%; 48 hrs (morphology observations after 48 hours) ([2]; Conc. 20 μm): * (50% or less of cells vesicularize in cell shape); cytotoxicity at 20 µM [2]: 50% |
| CCc1ccc(S(=O)(=O)c2cnc3ccc(OC(F)(F)F)cc3c2-n2cncn2)cc1 [Compound 51] | 100 | *** (100% of endothelial cells vesicularize in cell shape) | 20 |  | 48 hrs (morphology observations) ([1]; 40 μm): **** (100% of endothelial cells vesicularize in cell shape and look flattened in morphology (indicating disintegration of the cell body)) |
| CCc1ccc(S(=O)(=O)c2cnc3ccc(OC(F)(F)F)cc3c2N2CCCN(CCN(CC)CC)CC2)cc1 [Compound 100] |  | **** (100% of endothelial cells vesicularize in cell shape and look flattened in morphology (indicating disintegration of the cell body)) | 100 |  | 48 hrs (morphology observations) ([1]; 40 μm): **** (100% of endothelial cells vesicularize in cell shape and look flattened in morphology (indicating disintegration of the cell body)); cytotoxicity at 40 µM [1]: 100% |
| CCCCN(CCCC)c1c(S(=O)(=O)c2ccc(CC)cc2)cnc2ccc(OC(F)(F)F)cc12 [Compound 87] |  | 0 | 0 |  | cytotoxicity at 40 µM [1]: 0% |
| CCCCCCCOc1ccc(S(=O)(=O)c2cnc3ccc([S+](C)[O-])cc3c2N2CCC(N3CCC(N4CCCCC4)CC3)CC2)cc1 (stereo not shown) [Compound 258] |  |  |  | **** (100% of endothelial cells vesicularize in cell shape and look flattened in morphology (indicating disintegration of the cell body)) | cytotoxicity at 20 µM [1]: 100%; 48 hrs (morphology observations after 48 hours) ([2]; Conc. 10 μm): *** (100% of endothelial cells vesicularize in cell shape); cytotoxicity at 10 µM [2]: 100% |
| CCOC(=O)c1ccc2ncc(S(=O)(=O)c3ccc(OC)cc3)c(N(CCO)CCO)c2c1 [Compound 156] |  | 0 | 0 |  | cytotoxicity at 40 µM [1]: 30% |
| CCCCOc1ccc(S(=O)(=O)c2cnc3ccc(C(=O)OCC)cc3c2N2CCCN(C)CC2)cc1 [Compound 158] |  | **** (100% of endothelial cells vesicularize in cell shape and look flattened in morphology (indicating disintegration of the cell body)) | 100 |  | 48 hrs (morphology observations) ([1]; 40 μm): **** (100% of endothelial cells vesicularize in cell shape and look flattened in morphology (indicating disintegration of the cell body)); cytotoxicity at 40 µM [1]: 100% |
| CCc1ccc(S(=O)(=O)c2cnc3ccc(OC(F)(F)F)cc3c2N2CCCC(O)C2)cc1 (stereo not shown) [Compound 82] | 60 | 0 | 10 |  |  |
| COc1ccc(S(=O)(=O)c2cnc3ccc([N+](=O)[O-])cc3c2-n2cncn2)cc1 [Compound 97] |  |  |  |  | Cell death ([1]; 20 μm): 50%; 48 hrs (morphology observations after 48 hours) ([2]; Conc. 10 μm): *** (100% of endothelial cells vesicularize in cell shape); cytotoxicity at 10 µM [2]: 100% |
